# Measured values reported in US9474790B2, “Stable, protracted GLP-1/glucagon receptor co-agonists for medical use” (Novo Nordisk A/S, priority 2013, dated 2016).
# Numbered stars: 1 amine (or outer) side, 2 acyl side, 3 side chain; on linkers, the order of the positions; unused ones are H or OH. Square brackets hold non-standard residues; d marks the D form. Side chains are listed from the residue outwards. Peptide text beside a SMILES is read from it. * marks the point of attachment. C18 diacid = O=C(O)CCCCCCCCCCCCCCCCC(=O)*; γGlu = O=C(O)[C@H](CCC(=O)[*:2])N[*:1]; Ac4c = NC1(C(=O)O)CCC1; AEEA = NCCOCCOCC(=O)O; Aib = CC(C)(N)C(=O)O
# How the values were obtained:
# human glucagon receptor = molecular target: T1, human glucagon receptor (Homo sapiens, UniProt P47871); assay: Glucagon receptor binding, 125I-glucagon displacement SPA on isolated membranes; settings: displacement of 125I-glucagon from membranes; read-out: IC50 GlucR
# T1 construct: expressed in transfected cells; host or cells: BHK cells (parent BHK570, CRE luciferase clone BHK/KZ10-20-48), clone pLJ6'-4-25
# Method in brief: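 Displacement IC50 derived by non-linear regression of SPA counts after 2 h, 25 °C incubation of compound with [125I]-glucagon (480 pM solution, 25 μl) and membranes of hGCGR-transfected BHK cells. Buffer was HEPES pH 7.4 with ovalbumin; serum albumin was held at 0.001% max or 0.2% final.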
# [1] = Chemical stability assessment by RP-UPLC; type: physicochemical; settings: 333 μM, 8 mM phosphate buffer pH 7.3, 37° C. vs 5° C.
# Method in brief: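 Purity loss = (purity after 14 days at 5° C. minus that at 37° C.) relative to the 5° C. value, purity being main-peak area % by RP-UPLC with UV at 215 nm. Samples were 333 μM in 8 mM phosphate, pH 7.3; gradient adjusted for outlying retention times.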
# T1 sequence (P47871 26-477): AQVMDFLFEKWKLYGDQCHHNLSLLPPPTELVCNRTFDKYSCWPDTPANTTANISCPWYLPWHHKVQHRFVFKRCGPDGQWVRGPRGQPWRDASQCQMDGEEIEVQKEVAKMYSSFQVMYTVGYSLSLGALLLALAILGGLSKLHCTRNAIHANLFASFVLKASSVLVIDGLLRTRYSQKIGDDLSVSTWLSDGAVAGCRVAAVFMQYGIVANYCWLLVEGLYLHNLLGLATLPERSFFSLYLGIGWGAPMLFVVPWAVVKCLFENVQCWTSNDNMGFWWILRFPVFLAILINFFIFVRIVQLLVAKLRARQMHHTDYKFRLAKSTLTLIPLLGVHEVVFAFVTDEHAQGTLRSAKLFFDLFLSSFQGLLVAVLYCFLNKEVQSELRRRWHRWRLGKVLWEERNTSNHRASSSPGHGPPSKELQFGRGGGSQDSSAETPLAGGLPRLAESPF
Compound,IC50 (human glucagon receptor) [nM],Purity loss; 14 days at 37° C. [1] [%]
"CC(C)C[C@H](NC(=O)[C@H](Cc1ccc(O)cc1)NC(=O)[C@H](CCCCN)NC(=O)[C@H](CO)NC(=O)[C@H](CC(C)C)NC(=O)[C@H](CC(=O)O)NC(=O)[C@H](CO)NC(=O)[C@@H](NC(=O)[C@H](Cc1ccccc1)NC(=O)[C@@H](NC(=O)CNC(=O)[C@H](CCC(N)=O)NC(=O)C(C)(C)NC(=O)[C@@H](N)Cc1c[nH]cn1)[C@@H](C)O)[C@@H](C)O)C(=O)N[C@@H](CCC(=O)O)C(=O)N[C@@H](CO)C(=O)N[C@@H](CCCNC(=N)N)C(=O)N[C@@H](CCCNC(=N)N)C(=O)N[C@@H](C)C(=O)N[C@@H](CCCNC(=N)N)C(=O)N[C@@H](CCC(=O)O)C(=O)N[C@@H](Cc1ccccc1)C(=O)N[C@H](C(=O)N[C@@H](CCC(N)=O)C(=O)N[C@@H](Cc1c[nH]c2ccccc12)C(=O)N[C@@H](CC(C)C)C(=O)N[C@@H](CC(C)C)C(=O)N[C@@H](CCCCNC(=O)CC[C@H](NC(=O)CC[C@H](NC(=O)COCCOCCNC(=O)COCCOCCNC(=O)CC[C@H](NC(=O)CCCCCCCCCCCCCCCCC(=O)O)C(=O)O)C(=O)O)C(=O)O)C(=O)N[C@H](C(N)=O)[C@@H](C)O)C(C)C [Example 23, N^ε28-[(4S)-4-carboxy-4-[[(4S)-4-carboxy-4-[[2-[2-[2-[[2-[2-[2-[[(4S)-4-carboxy-4-(17-carboxyheptadecanoylamino)butanoyl]amino]ethoxy]ethoxy]acetyl]amino]ethoxy]ethoxy]acetyl]amino]butanoyl]amino]butanoyl]-[Aib2,Leu10,Glu15,Arg20,Glu21,Leu27,Lys28]-Glucagon amide] (H-H[Aib]QGTFTSDLSKYLESRRAREFVQWLLK([γGlu-γGlu-AEEA-AEEA-γGlu-C18 diacid])T-NH2; N-terminus assumed)",6.4,2
"CC(C)C[C@H](NC(=O)[C@H](Cc1ccc(O)cc1)NC(=O)[C@H](CCCCN)NC(=O)[C@H](CO)NC(=O)[C@H](CC(C)C)NC(=O)[C@H](CC(=O)O)NC(=O)[C@H](CO)NC(=O)[C@@H](NC(=O)[C@H](Cc1ccccc1)NC(=O)[C@@H](NC(=O)CNC(=O)[C@H](Cc1c[nH]cn1)NC(=O)C(C)(C)NC(=O)[C@@H](N)Cc1c[nH]cn1)[C@@H](C)O)[C@@H](C)O)C(=O)N[C@@H](CCC(=O)O)C(=O)N[C@@H](CO)C(=O)N[C@@H](CCCCN)C(=O)N[C@@H](CCCNC(=N)N)C(=O)N[C@@H](C)C(=O)N[C@@H](CCCNC(=N)N)C(=O)N[C@@H](CCC(=O)O)C(=O)N[C@@H](Cc1ccccc1)C(=O)N[C@H](C(=O)N[C@@H](CCC(N)=O)C(=O)N[C@@H](Cc1c[nH]c2ccccc12)C(=O)N[C@@H](CC(C)C)C(=O)N[C@@H](CC(C)C)C(=O)N[C@@H](CCCCNC(=O)CC[C@H](NC(=O)CC[C@H](NC(=O)COCCOCCNC(=O)COCCOCCNC(=O)CC[C@H](NC(=O)CCCCCCCCCCCCCCCCC(=O)O)C(=O)O)C(=O)O)C(=O)O)C(=O)N[C@H](C(N)=O)[C@@H](C)O)C(C)C [Example 27, N^ε28-[(4S)-4-carboxy-4-[[(4S)-4-carboxy-4-[[2-[2-[2-[[2-[2-[2-[[(4S)-4-carboxy-4-(17-carboxyheptadecanoylamino)butanoyl]amino]ethoxy]ethoxy]acetyl]amino]ethoxy]ethoxy]acetyl]amino]butanoyl]amino]butanoyl]-[Aib2,His3,Leu10,Glu15,Lys17,Arg20,Glu21,Leu27, Lys28]-Glucagon amide] (H-H[Aib]HGTFTSDLSKYLESKRAREFVQWLLK([γGlu-γGlu-AEEA-AEEA-γGlu-C18 diacid])T-NH2; N-terminus assumed)",0.7,5

# Next, values leading:
IC50 (human glucagon receptor) [nM],Purity loss; 14 days at 37° C. [1] [%],Compound
0.2,5,"CC(C)C[C@H](NC(=O)[C@H](Cc1ccc(O)cc1)NC(=O)[C@H](CCCCN)NC(=O)[C@H](CO)NC(=O)[C@H](CC(C)C)NC(=O)[C@H](CC(=O)O)NC(=O)[C@H](CO)NC(=O)[C@@H](NC(=O)[C@H](Cc1ccccc1)NC(=O)[C@@H](NC(=O)CNC(=O)[C@H](Cc1c[nH]cn1)NC(=O)C(C)(C)NC(=O)[C@@H](N)Cc1c[nH]cn1)[C@@H](C)O)[C@@H](C)O)C(=O)N[C@@H](CCC(=O)O)C(=O)N[C@@H](CO)C(=O)N[C@@H](CCCCN)C(=O)N[C@@H](CCCNC(=N)N)C(=O)N[C@@H](C)C(=O)N[C@@H](CCCNC(=N)N)C(=O)N[C@@H](CCC(=O)O)C(=O)N[C@@H](Cc1ccccc1)C(=O)N[C@H](C(=O)N[C@@H](CCC(N)=O)C(=O)N[C@@H](Cc1c[nH]c2ccccc12)C(=O)N[C@@H](CC(C)C)C(=O)N[C@@H](CC(C)C)C(=O)N[C@@H](CCCCNC(=O)CC[C@H](NC(=O)CC[C@H](NC(=O)CC[C@H](NC(=O)CCCCCCCCCCCCCCCCC(=O)O)C(=O)O)C(=O)O)C(=O)O)C(=O)N[C@H](C(N)=O)[C@@H](C)O)C(C)C [Example 34, N^ε28-[(4S)-4-carboxy-4-[[(4S)-4-carboxy-4-[[(4S)-4-carboxy-4-(17-carboxyheptadecanoylamino)butanoyl]amino]butanoyl]amino]butanoyl]-[Aib2,His3,Leu10,Glu15,Lys17,Arg20,Glu21,Leu27,Lys28]-Glucagon amide] (H-H[Aib]HGTFTSDLSKYLESKRAREFVQWLLK([γGlu-γGlu-γGlu-C18 diacid])T-NH2; N-terminus assumed)"
0.6,3,"CC(C)C[C@H](NC(=O)[C@H](Cc1ccc(O)cc1)NC(=O)[C@H](CCCCN)NC(=O)[C@H](CO)NC(=O)[C@H](CC(C)C)NC(=O)[C@H](CC(=O)O)NC(=O)[C@H](CO)NC(=O)[C@@H](NC(=O)[C@H](Cc1ccccc1)NC(=O)[C@@H](NC(=O)CNC(=O)[C@H](CCC(N)=O)NC(=O)C1(NC(=O)[C@@H](N)Cc2c[nH]cn2)CCC1)[C@@H](C)O)[C@@H](C)O)C(=O)N[C@@H](CCC(=O)O)C(=O)N[C@@H](CO)C(=O)N[C@@H](CCCCN)C(=O)N[C@@H](CCCNC(=N)N)C(=O)N[C@@H](C)C(=O)N[C@@H](CCCNC(=N)N)C(=O)N[C@@H](CCC(=O)O)C(=O)N[C@@H](Cc1ccccc1)C(=O)N[C@H](C(=O)N[C@@H](CCC(N)=O)C(=O)N[C@@H](Cc1c[nH]c2ccccc12)C(=O)N[C@@H](CC(C)C)C(=O)N[C@@H](CC(C)C)C(=O)N[C@@H](CCCCNC(=O)CC[C@H](NC(=O)CC[C@H](NC(=O)[C@H](CO)NC(=O)[C@H](CCC(=O)O)NC(=O)[C@H](CO)NC(=O)CC[C@H](NC(=O)CC[C@H](NC(=O)CCCCCCCCCCCCCCCCC(=O)O)C(=O)O)C(=O)O)C(=O)O)C(=O)O)C(=O)N[C@H](C(N)=O)[C@@H](C)O)C(C)C [Example 68, N^ε28-[(4S)-4-carboxy-4-[[(4S)-4-carboxy-4-[[(2S)-2-[[(2S)-4-carboxy-2-[[(2S)-2-[[(4S)-4-carboxy-4-[[(4S)-4-carboxy-4-(17-carboxyheptadecanoylamino)butanoyl]amino]butanoyl]amino]-3-hydroxypropanoyl]amino]butanoyl]amino]-3-hydroxypropanoyl]amino]butanoyl]amino]butanoyl]-[Acb2,Leu10,Glu15,Lys17,Arg20,Glu21,Leu27,Lys28]-Glucagon amide] (H-H[Ac4c]QGTFTSDLSKYLESKRAREFVQWLLK([γGlu-γGlu-Ser-Glu-Ser-γGlu-γGlu-C18 diacid])T-NH2; N-terminus assumed)"
1.5,3,"CC(C)C[C@H](NC(=O)[C@H](CC(=O)O)NC(=O)[C@H](CC(C)C)NC(=O)[C@H](Cc1ccc(O)cc1)NC(=O)[C@H](CCCCN)NC(=O)[C@H](CO)NC(=O)[C@H](CC(C)C)NC(=O)[C@H](CC(=O)O)NC(=O)[C@H](CO)NC(=O)[C@@H](NC(=O)[C@H](Cc1ccccc1)NC(=O)[C@@H](NC(=O)CNC(=O)[C@H](CCC(N)=O)NC(=O)C1(NC(=O)[C@@H](N)Cc2c[nH]cn2)CCC1)[C@@H](C)O)[C@@H](C)O)C(=O)N[C@@H](CCCCN)C(=O)N[C@@H](CCCNC(=N)N)C(=O)N[C@@H](C)C(=O)N[C@@H](CCCNC(=N)N)C(=O)N[C@@H](CCC(=O)O)C(=O)N[C@@H](Cc1ccccc1)C(=O)N[C@H](C(=O)N[C@@H](CCC(N)=O)C(=O)N[C@@H](Cc1c[nH]c2ccccc12)C(=O)N[C@@H](CC(C)C)C(=O)N[C@@H](CC(C)C)C(=O)N[C@@H](CCCCNC(=O)CC[C@H](NC(=O)CC[C@H](NC(=O)COCCOCCNC(=O)COCCOCCNC(=O)CC[C@H](NC(=O)CC[C@H](NC(=O)CCCCCCCCCCCCCCCCC(=O)O)C(=O)O)C(=O)O)C(=O)O)C(=O)O)C(=O)N[C@H](C(N)=O)[C@@H](C)O)C(C)C [Example 47, N^ε28-[(4S)-4-carboxy-4-[[(4S)-4-carboxy-4-[[2-[2-[2-[[2-[2-[2-[[(4S)-4-carboxy-4-[[(4S)-4-carboxy-4-(17-carboxyheptadecanoylamino)butanoyl]amino]butanoyl]amino]ethoxy]ethoxy]acetyl]amino]ethoxy]ethoxy]acetyl]amino]butanoyl]amino]butanoyl]-[Acb2,Leu10,Leu16,Lys17,Arg20,Glu21,Leu27,Lys28]-Glucagon amide] (H-H[Ac4c]QGTFTSDLSKYLDLKRAREFVQWLLK([γGlu-γGlu-AEEA-AEEA-γGlu-γGlu-C18 diacid])T-NH2; N-terminus assumed)"
